In US20250243488A1, “METHODS OF MODULATING PROGRANULIN EXPRESSION USING ANTISENSE OLIGONUCLEOTIDES TARGETING REGULATORY RNAS” (Camp4 Therapeutics Corporation, priority 2022, published 2025):
Oligonucleotides are written 5' to 3', each unit as a sugar letter and its base; * is a phosphorothioate linkage, no mark a phosphodiester; rarer units and linkages stand in square brackets, end groups in braces. Plain capitals give the bases only. e = 2'-O-(2-methoxyethyl) (MOE); l = locked nucleic acid (LNA); [5mC] = 5-methylcytosine; d = 2'-deoxy (DNA)

Tested on: GRN mRNA
Assay: GRN mRNA qPCR in SK-N-AS cells transfected with ASOs
Assay type: cell-based, human
Details: SK-N-AS; for 120 nM FC (GRN mRNA) / hGRN mRNA FC: 120 nM
How it was run: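 Fold change in GRN mRNA, by qPCR with GAPDH/PPIA housekeeping normalization, referenced to steric non-targeting control ASO(s) such as CO-1589. ASOs were transfected into SK-N-AS neuroblastoma cells in dose titrations (20 to 160 nM initially). Cells were harvested 48 hours post-transfection.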

[1] = Table 12, normalized to CO-1589
[2] = Table 13, normalized to CO-1589
[3] = Table 9, 48 hours post-transfection, normalized to CO-1589
[4] = Table 11, 48 hours, normalized to CO-1589
[5] = Table 4, normalized to CO-3772 and CO-1589 (sNTC1)
[6] = Table 7, normalized to CO-1589 (sNTC1)

CO-6390: ASO based on parent ASO CO-3462 (antisense eT*eA*eG*eG*lA*dG*dA*dA*lT*d[5mC]*dG*d[5mC]*lT*dT*dT*eG*lG*eG*eA*eG)
30 nM FC (GRN mRNA) [1]: 1.3 FC
60 nM FC (GRN mRNA) [1]: 1.3 FC
120 nM FC (GRN mRNA) [1]: 1.5 FC

CO-6427: ASO based on parent ASOs CO-4363 and CO-4364 (eG*eG*eG*eA*e[5mC]*eT*eT*eG*eG*eG*eA*eG*eT*eG*eG*eT*eG*eA*e[5mC]*eT*eG*eA*eA*e[5mC]*e[5mC])
30 nM FC (GRN mRNA) [2]: 1.2 FC
60 nM FC (GRN mRNA) [2]: 1.1 FC
120 nM FC (GRN mRNA) [2]: 1.2 FC

CO-4620: ASO designed to target intergenic enhancers (eRNA) (antisense eG*eT*e[5mC]*e[5mC]*eA*eG*e[5mC]*eA*e[5mC]*eG*e[5mC]*eT*e[5mC]*eT*e[5mC]*eA*eG*e[5mC]*eA*e[5mC])
hGRN mRNA FC [3]: 1.0 FC

CO-6439: ASO designed to target an intragenic enhancer RNA (eRNA) (eG*e[5mC]*eT*e[5mC]*e[5mC]*e[5mC]*eT*eG*eT*eG*eT*eG*e[5mC]*eT*eA*e[5mC]*eT*eG*eA*eG)
hGRN mRNA FC [4]: 1.1 FC

CO-4362: longer ASO based on CO-3423 (antisense eG*eA*e[5mC]*eT*eT*dG*dG*dG*eA*dG*dT*eG*dG*dT*dG*eA*e[5mC]*eT*eG*eA)
30 nM FC (GRN mRNA) [5]: 1.1 FC
60 nM FC (GRN mRNA) [5]: 1.1 FC
120 nM FC (GRN mRNA) [5]: 1.4 FC

CO-4647: ASO designed to target intergenic enhancers (eRNA) (antisense e[5mC]*eT*eA*eA*eG*e[5mC]*eG*eT*eT*eT*e[5mC]*eT*e[5mC]*eT*eA*eG*eT*e[5mC]*eA*eT)
hGRN mRNA FC [3]: 0.8 FC

CO-4636: ASO designed to target intergenic enhancers (eRNA) (antisense eG*eG*e[5mC]*eA*eA*eT*eT*eA*e[5mC]*eA*eT*eA*e[5mC]*eA*eT*eG*eA*eG*eG*eA)
hGRN mRNA FC [3]: 0.9 FC

CO-4361: longer ASO based on CO-3423 (antisense eG*eA*e[5mC]*eT*eT*dG*dG*dG*dA*dG*dT*dG*dG*dT*dG*eA*e[5mC]*eT*eG*eA)
30 nM FC (GRN mRNA) [5]: 1.1 FC
60 nM FC (GRN mRNA) [5]: 1.3 FC
120 nM FC (GRN mRNA) [5]: 1.6 FC

CO-6451: ASO designed to target an intragenic enhancer RNA (eRNA) (eA*e[5mC]*eG*eT*eT*eT*eG*e[5mC]*eT*e[5mC]*e[5mC]*eT*e[5mC]*eT*eT*e[5mC]*e[5mC]*eA*eG*eT)
hGRN mRNA FC [4]: 1.0 FC

CO-4602: ASO designed to target intergenic enhancers (eRNA) (antisense eT*eA*e[5mC]*eT*e[5mC]*e[5mC]*eT*eA*eG*e[5mC]*e[5mC]*eT*eG*e[5mC]*eG*e[5mC]*e[5mC]*eT*eT*eT)
hGRN mRNA FC [3]: 1.2 FC

CO-4586: ASO designed to target intergenic enhancers (eRNA) (antisense eT*eG*eA*e[5mC]*eA*eA*eG*e[5mC]*eG*eG*eG*eA*eT*e[5mC]*eG*eG*eA*eG*eA*eG)
hGRN mRNA FC [3]: 0.9 FC

CO-6395: ASO based on parent ASO CO-3462 (antisense eT*eA*eG*eG*lA*eG*eA*eA*lT*e[5mC]*eG*e[5mC]*lT*eT*eT*eG*lG*eG*eA*eG)
30 nM FC (GRN mRNA) [1]: 1.0 FC
60 nM FC (GRN mRNA) [1]: 1.3 FC
120 nM FC (GRN mRNA) [1]: 1.6 FC

CO-4364: longer ASO based on CO-3423 (antisense eG*eG*eA*e[5mC]*eT*eT*eG*eG*eG*eA*eG*eT*eG*eG*eT*eG*eA*e[5mC]*eT*eG*eA*eA*e[5mC])
30 nM FC (GRN mRNA) [5]: 1.1 FC
60 nM FC (GRN mRNA) [5]: 1.3 FC
120 nM FC (GRN mRNA) [5]: 1.6 FC
7.5 nM FC (GRN mRNA) (Table 7, 7.5 nM, normalized to CO-1589 (sNTC1)): 1.1 FC
13 nM FC (GRN mRNA) (Table 7, 13 nM, normalized to CO-1589 (sNTC1)): 1.2 FC
30 nM FC (GRN mRNA) [6]: 1.7 FC
60 nM FC (GRN mRNA) [6]: 2.1 FC
120 nM FC (GRN mRNA) [6]: 1.9 FC
150 nM FC (GRN mRNA) (Table 7, 150 nM, normalized to CO-1589 (sNTC1)): 2.3 FC
30 nM FC (GRN mRNA) [2]: 1.1 FC
60 nM FC (GRN mRNA) [2]: 1.5 FC
120 nM FC (GRN mRNA) [2]: 1.6 FC

CO-4625: ASO designed to target intergenic enhancers (eRNA) (antisense eT*e[5mC]*eT*eT*eG*eT*eT*eG*eT*eT*eG*eG*eA*eA*eA*eT*eT*e[5mC]*e[5mC]*e[5mC])
hGRN mRNA FC [3]: 1.1 FC

CO-4618: ASO designed to target intergenic enhancers (eRNA) (antisense eA*eT*eA*eG*eG*eT*e[5mC]*eA*eG*eG*eG*eA*eA*eT*eG*e[5mC]*e[5mC]*eG*e[5mC]*e[5mC])
hGRN mRNA FC [3]: 1.3 FC

CO-6512: ASO based on parent ASO CO-3462 (antisense eT*eA*eGeGeAeGeA*eA*eT*e[5mC]*eG*e[5mC]eT*eT*eT*eG*eG*eG*eA*eG)
30 nM FC (GRN mRNA) [1]: 1.3 FC
60 nM FC (GRN mRNA) [1]: 1.8 FC
120 nM FC (GRN mRNA) [1]: 1.3 FC

CO-6452: ASO designed to target an intragenic enhancer RNA (eRNA) (eT*eG*eG*e[5mC]*eT*eG*e[5mC]*e[5mC]*e[5mC]*e[5mC]*eT*e[5mC]*eA*e[5mC]*eG*eT*eT*eT*eG*e[5mC])
hGRN mRNA FC [4]: 1.4 FC

CO-6398: ASO based on parent ASO CO-3462 (antisense eT*eA*eG*eG*lA*eG*eA*eA*eT*l[5mC]*eG*e[5mC]*eT*eT*lT*eG*eG*eG*eA*eG)
30 nM FC (GRN mRNA) [1]: 1.3 FC
60 nM FC (GRN mRNA) [1]: 1.5 FC
120 nM FC (GRN mRNA) [1]: 1.8 FC

CO-6382: ASO based on parent ASO CO-3462 (antisense e[5mC]*eT*eA*eT*eG*eA*eT*e[5mC]*eA*eG*e[5mC]*eT*eT*eG*eG*eG*e[5mC]*eG*eA*e[5mC])
30 nM FC (GRN mRNA) [1]: 0.8 FC
60 nM FC (GRN mRNA) [1]: 0.8 FC
120 nM FC (GRN mRNA) [1]: 0.9 FC

CO-6455: ASO designed to target an intragenic enhancer RNA (eRNA) (e[5mC]*eT*e[5mC]*eA*eT*eT*eG*eA*e[5mC]*eT*e[5mC]*e[5mC]*eA*eA*eG*eT*eG*eT*eA*eG)
hGRN mRNA FC [4]: 0.9 FC

CO-6520: ASO based on parent ASO CO-3462 (antisense eT*eA*eG*eG*eA*eG*eA*eAeTe[5mC]eGe[5mC]eTeTeTeGeGeG*eA*eG)
30 nM FC (GRN mRNA) [1]: 1.0 FC
60 nM FC (GRN mRNA) [1]: 1.2 FC
120 nM FC (GRN mRNA) [1]: 0.8 FC

CO-6445: ASO designed to target an intragenic enhancer RNA (eRNA) (eG*eT*eG*eG*eG*eA*eA*eG*eT*eA*eT*eG*eG*e[5mC]*eT*eG*e[5mC]*eT*eG*e[5mC])
hGRN mRNA FC [4]: 1.3 FC

CO-6386: ASO based on parent ASO CO-3462 (antisense eG*e[5mC]*eG*eA*eG*e[5mC]*e[5mC]*eA*eG*e[5mC]*eT*e[5mC]*eA*eG*eT*eA*eG*e[5mC]*eT*e[5mC])
30 nM FC (GRN mRNA) [1]: 1.2 FC
60 nM FC (GRN mRNA) [1]: 0.9 FC
120 nM FC (GRN mRNA) [1]: 1.1 FC

CO-4632: ASO designed to target intergenic enhancers (eRNA) (antisense eT*eG*e[5mC]*eT*eA*eT*eG*e[5mC]*eA*eT*eT*eG*eA*eG*eT*eT*eT*eT*e[5mC]*e[5mC])
hGRN mRNA FC [3]: 1.1 FC

CO-6422: ASO based on parent ASOs CO-4363 and CO-4364 (eG*eG*eA*l[5mC]*eT*eT*eG*lG*eG*eA*eG*lT*eG*eG*eT*lG*eA*e[5mC]*eT*lG*eA*eA*e[5mC])
30 nM FC (GRN mRNA) [2]: 1.9 FC
60 nM FC (GRN mRNA) [2]: 2.0 FC
120 nM FC (GRN mRNA) [2]: 2.1 FC

CO-6449: ASO designed to target an intragenic enhancer RNA (eRNA) (eG*eT*e[5mC]*e[5mC]*eA*eG*e[5mC]*eT*e[5mC]*eG*eG*eT*e[5mC]*eA*eT*eG*eT*eG*eT*e[5mC])
hGRN mRNA FC [4]: 1.1 FC

CO-4616: ASO designed to target intergenic enhancers (eRNA) (antisense eA*eA*eG*eA*eA*eG*eG*e[5mC]*e[5mC]*eA*eA*eG*e[5mC]*eT*eG*eG*eT*eA*e[5mC]*e[5mC])
hGRN mRNA FC [3]: 1.2 FC

CO-6518: ASO based on parent ASO CO-3462 (antisense eT*eA*eG*eGeAeGeAeAeTe[5mC]eGe[5mC]eTeTeTeGeGeG*eA*eG)
30 nM FC (GRN mRNA) [1]: 1.2 FC
60 nM FC (GRN mRNA) [1]: 1.3 FC
120 nM FC (GRN mRNA) [1]: 0.9 FC

CO-4623: ASO designed to target intergenic enhancers (eRNA) (antisense e[5mC]*e[5mC]*eT*eG*eA*e[5mC]*e[5mC]*eT*eG*e[5mC]*e[5mC]*eA*eT*e[5mC]*eT*eA*eT*e[5mC]*eA*eA)
hGRN mRNA FC [3]: 1.1 FC

CO-4638: ASO designed to target intergenic enhancers (eRNA) (antisense eT*eT*eG*eA*eT*eA*eG*eA*eT*eG*eG*e[5mC]*eA*eG*eG*eT*e[5mC]*eA*eG*eG)
hGRN mRNA FC [3]: 1.0 FC

CO-4601: ASO designed to target intergenic enhancers (eRNA) (antisense eG*eT*eA*eG*eG*e[5mC]*e[5mC]*eT*e[5mC]*eG*eA*e[5mC]*eT*eT*eT*eG*eA*e[5mC]*eG*eT)
hGRN mRNA FC [3]: 1.0 FC
